Data from patent US20160354373A1, “METHODS OF TREATING ACUTE T CELL LEUKEMIA” (priority 2015, published 2016).

Columns and labels:
[1] = recent clinical trials data; cited from earlier work
[2] = test system: Myc expression signatures; details: AMD3100 or vehicle for 4 days in vitro, OP9 co-culture
Method: FIG. 14A is a heat map depicting differentially expressed genes (Myc targets are indicated) in primary mouse T-ALL cells after 4 day culture with OP9 cells in the presence of AMD3100 or vehicle (right; n=3). […] Data represents 3 different experiments, with cells pooled from 1-3 mice per experiment.
Primary mouse T-ALL cells isolated from spleen were maintained on OP9 stromal cells in OptiMEM+GlutaMAX (Invitrogen) supplemented with 10% FBS, 5 ng/ml IL-7, penicillin and streptomycin, and 55 μM (3-mercaptoethanol and passaged every 3-4 days onto a fresh feeder layer. OP9 cells were pre-treated with 7.5 ng/mL mitomycin C (Sigma) to prevent feeder cell division. Mouse ETP T-ALL (Treanor et al., “Interleukin-7 Receptor Mutants Initiate Early T Cell Precursor Leukemia in Murine Thymocyte Progenitors with Multipotent Potential,” J. Exp. Med. 211:701-713 (2014), which is hereby incorporated by reference in its entirety) and a T-ALL cell line generated by ENU mutagenesis carrying a Notch1 PEST domain mutation (G7084 (ins)C7085) were maintained on OP9-DLL4 feeders. […]
Total RNA was extracted from samples using RNeasy Plus Mini Kit (Life Technologies). […] RNA libraries were then sequenced on the Illumina HiSeq 2000 or 2500 using 50 bp single-end reads. […]

[3] = test system: primary human T-ALL cells (hCD45+); details: two weeks
From the text: After GFP^+ leukemic cells reached 5% of white blood cells, osmotic pumps filled with AMD3465 (20 nmol/hour) or vehicle (PBS) were implanted subcutaneously (s.c.). […] After leukemia reached 5% of white blood cells, osmotic pumps filled with AMD3465 (25 nmol/hour) or vehicle were implanted s.c. Analysis was 2 weeks after treatment initiation. […] Values represent the mean frequency of hCD45^+ cells+/−SEM.
For human xenograft studies, NOD-SCID donor mice were used. […] 1-5×10^6 cells patient cells were transplanted into immunodeficient mouse strains via retro-orbital injection. Cells from spleen of these primary recipients were used for experiments.
For CXCR4 inhibition in xenografted patient T-ALL, NOD-SCID mice were implanted with osmotic pumps filled with 50 mM AMD3465 or PBS. Mice implanted with osmotic pumps were sacrificed 14 days later for analysis of tumor burden by flow cytometry.
First, the primary human leukemia cells were expanded in immune-deficient NOD/MrkBomTac-Prkdc^scid (NOD-SCID) hosts for 6 weeks. Subsequently, two million human T-ALL cells were transplanted into secondary NOD-SCID hosts and peripheral blood was monitored for the appearance of human CD45+ (hCD45+) leukemic cells. Once leukemia constituted >5% of white blood cells in blood, treatment began with AMD3465 or vehicle using osmotic pumps. Two weeks later, animals were sacrificed and the leukemia burden was assessed.

[4] = test system: Notch1-ΔE-IRES-GFP+ T-ALL cells; details: AMD3465 20 nmol/hour via s.c. osmotic pump vs PBS; two weeks of treatment; started at >5% GFP+ blasts in blood
From the text: After GFP^+ leukemic cells reached 5% of white blood cells, osmotic pumps filled with AMD3465 (20 nmol/hour) or vehicle (PBS) were implanted subcutaneously (s.c.). The graphs show T-ALL cell numbers in the indicated tissues 2 weeks after treatment initiation. Bars represent the mean. […] After leukemia reached 5% of white blood cells, osmotic pumps filled with AMD3465 (25 nmol/hour) or vehicle were implanted s.c. Analysis was 2 weeks after treatment initiation. […] Values represent the mean frequency of hCD45^+ cells+/−SEM. […] Bars represent the mean.
For inhibition of CXCR4 in primary mouse T-ALL, mice were anaesthetized by isoflurane inhalation and implanted subcutaneously with osmotic pumps (model 2002; Alzet) filled with 40 mM AMD3465 (Tocris) or PBS (flow rate 0.5 ul/hour). […] For CXCR4 inhibition in xenografted patient T-ALL, NOD-SCID mice were implanted with osmotic pumps filled with 50 mM AMD3465 or PBS. Mice implanted with osmotic pumps were sacrificed 14 days later for analysis of tumor burden by flow cytometry.
To this end, two cohorts of lethally irradiated mice were transplanted with Notch1-ΔE-IRES-GFP^+ bone marrow progenitor cells, and after >5% peripheral blood lymphocytes constituted GFP^+ leukemic blasts, AMD3465 (20 nmol/hour) or PBS was administered via osmotic pump.

Myc [5] = details: 8 hours after s.c. AMD3465, 2 doses of 25 mg/kg 4 hours apart, vs PBS; wild-type T-ALL
Method: Whole cell lysates were prepared in RIPA buffer (50 mM Tris-HCl, 150 mM NaCl, 1% NP-40, 0.25% sodium deoxycholate, 5 mM EDTA) containing complete Mini protease and phosSTOP phosphatase inhibitors (Roche) and resolved by 8% SDS-PAGE gel electrophoresis. Proteins were transferred to nitrocellulose membranes (Bio-Rad) and probed with primary antibodies raised against c-Myc (polyclonal, Cell Signaling Technologies); 0-tubulin (polyclonal, Abcam); and β-actin (clone C4, Santa Cruz Biotechnologies). Following incubation with horseradish peroxidase (HRP)-conjugated anti-mouse or anti-rabbit secondary antibodies (Jackson laboratories), proteins were detected using the SuperSignal West Pico ECL Kit (Thermo Scientific) and exposed to film or imaged using the ChemiDoc MP system (Bio-rad).
For inhibition of CXCR4 in primary mouse T-ALL, mice were anaesthetized by isoflurane inhalation and implanted subcutaneously with osmotic pumps (model 2002; Alzet) filled with 40 mM AMD3465 (Tocris) or PBS (flow rate 0.5 ul/hour).

[6] = test system: primary mouse T-ALL cells; details: MIG-IRES-GFP-cMyc vs control transduced cells; 4 days OP9 co-culture
Method: Data represents 1 experiment with 3 replicates per group for each AMD3465 concentration tested. Error bars represent +/−SD.
(§1) Primary mouse T-ALL cells isolated from spleen were maintained on OP9 stromal cells in OptiMEM+GlutaMAX (Invitrogen) supplemented with 10% FBS, 5 ng/ml IL-7, penicillin and streptomycin, and 55 μM (3-mercaptoethanol and passaged every 3-4 days onto a fresh feeder layer. OP9 cells were pre-treated with 7.5 ng/mL mitomycin C (Sigma) to prevent feeder cell division. Mouse ETP T-ALL (Treanor et al., “Interleukin-7 Receptor Mutants Initiate Early T Cell Precursor Leukemia in Murine Thymocyte Progenitors with Multipotent Potential,” J. Exp. Med. 211:701-713 (2014), which is hereby incorporated by reference in its entirety) and a T-ALL cell line generated by ENU mutagenesis carrying a Notch1 PEST domain mutation (G7084 (ins)C7085) were maintained on OP9-DLL4 feeders. AMD3100 octahydrochloride hydrate (10 ug/mL in water; Sigma), AMD3465 hexahydrobromide (50 ug/mL in water; Tocris or Cayman Chemical) or the corresponding vehicle was added to culture media at the start of the culture period.

Myc [7] = details: 4 days culture on OP9 cells with AMD3465 or vehicle, in vitro
Method: as §1

enrichment of genes down-regulated by treatment in Myc DNA binding databases (GSEA) [2]	SMILES	absorption [1]	tolerability [1]	number of hCD45+ cells in blood and spleen ([3]; AMD3465 25 nmol/hour via s.c. osmotic pump vs vehicle, patient 1 and 2 xenografts in NOD-SCID)	T-ALL infiltration of brain, liver and lungs (histo-pathological analysis) ([3]; AMD3465 via osmotic pump vs PBS, patient 1 xenograft)	splenomegaly ([3]; AMD3465 via osmotic pump vs vehicle (PBS), xenografted NOD-SCID mice)	leukemia burden across all tissues surveyed (T-ALL cell numbers) [4]	Myc protein levels in T-ALL cells (Myc [5])	proliferation of T-ALL cells in the presence of AMD3465 upon Myc overexpression [6]	Myc protein expression (MYC-GFP fusion allele) in mouse LIC cells (Myc [7])
significant enrichment	c1cc(CN2CCCNCCNCCCNCC2)ccc1CN1CCCNCCNCCCNCC1 [AMD3100, 1,1′-[1,4-phenylenebis(methylene)]bis[1,4,8,11-tetraazacyclotetradecane]]	absorbed quickly	well tolerated	–	–	–	–	–	–	–
–	c1ccc(CNCc2ccc(CN3CCCNCCNCCCNCC3)cc2)nc1 [AMD3465, N[1,4,8,11-tetraazacyclotetradecanyl-1,4-phenylene-bis-(methylene)]-2-aminomethyl-pyridine]	–	–	significantly reduced	virtually leukemia-free	substantially decreased	substantial reduction	reduced	partially restored	Reduced
